The values that follow are results of earlier work, collected in US10888524B2, “Immediate release tablet of dofetilide” (Enaltec Pharma Research Pvt. Ltd., priority 2018, dated 2021).

Series [1] has as its system patients with atrial as well as ventricular arrhythmias.
The subject of series [2] is patients with severe left ventricular dysfunction. As to conditions: unlike class I agents.

For `CN(CCOc1ccc(NS(C)(=O)=O)cc1)CCc1ccc(NS(C)(=O)=O)cc1` [Dofetilide, N-[4-[2-[methyl[2-[4-[(methylsulfonyl)amino]phenoxy]ethyl]amino]ethyl]phenyl]-methane sulfonamide], the “Efficacy in treating arrhythmias” value in series [1] was “effective”. The “Safety in patients with congestive heart failure” value in series [2] is “safe”.
